We go through 20 compounds from PubChem BioAssay (NCI).

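Growth conditions: 96-well plates. Treatment: test compound, 48 hours, 5 concentrations. Analysis: linear interpolation between bracketing concentrations; unreached endpoints set to highest concentration. The concentration for 50% growth inhibition is given as GI50. TGI is the concentration that stops growth completely.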

Some test systems named below: UO-31 renal; SK-MEL-2 melanoma; HL-60(TB) leukemia; SF-268 CNS; SK-MEL-5 melanoma; HCT-116 colon; SK-OV-3 ovarian; SF-295 CNS; NCI/ADR-RES ovarian; PC-3 prostate.
Assay in all cases: NCI tumour cell line growth inhibition, 48 h

As to `Cc1nn2c(nc1=O)sc1ccc3ccccc3c12`, the TGI in the assay on UO-31 renal, in the assay on SK-MEL-2 melanoma, in the assay with HL-60(TB) leukemia, with SF-268 CNS, in the assay with SK-MEL-5 melanoma and in the assay with HCT-116 colon was greater than 100 µM throughout. In addition, the TGI in the assay on SK-OV-3 ovarian and in the assay on SF-295 CNS was greater than 100 µM each time.

Turning to `C(=N\Nc1ccccc1)/c1nc2ccccc2nc1/C=N/Nc1ccccc1`, the TGI was greater than 84.6 µM in the assay on UO-31 renal; 39.3 µM in the assay on SK-MEL-2 melanoma; greater than 100 µM in the assay with HL-60(TB) leukemia; 29.3 µM in the assay on SF-268 CNS; 35.4 µM in the assay with SK-MEL-5 melanoma; 25.7 µM in the assay on HCT-116 colon. The results for the TGI with SK-OV-3 ovarian and in the assay with SF-295 CNS were 38.6 µM and 30.5 µM, respectively.

In the case of `N#CCCCCCOCCOCCOCCOCCOCCCCCC#N`, the TGI in the assay on UO-31 renal, in the assay with SK-MEL-2 melanoma, in the assay on HL-60(TB) leukemia, in the assay with SF-268 CNS, with SK-MEL-5 melanoma and in the assay on HCT-116 colon was greater than 100 µM in each case. The TGI in the assay with SK-OV-3 ovarian and with SF-295 CNS was greater than 100 µM each time.

On to `O=C(NCc1cccnc1)C1COc2cc(-c3cc(=O)c4ccccc4o3)ccc2O1` (configuration not stated), for which the TGI was greater than 100 µM with UO-31 renal; greater than 68.7 µM in the assay on SK-MEL-2 melanoma; greater than 46.4 µM in the assay with HL-60(TB) leukemia; greater than 55.2 µM in the assay with SF-268 CNS; greater than 100 µM in the assay on SK-MEL-5 melanoma; greater than 100 µM in the assay on HCT-116 colon. Besides, the TGI in the assay on SK-OV-3 ovarian is greater than 100 µM; with SF-295 CNS it was greater than 69.8 µM.

In the case of `CCCCCCCCCCCC(=O)N1CCN(C(C)=O)CC1`, the GI50 was 25.9 µM in the assay on NCI/ADR-RES ovarian; 18.7 µM with UO-31 renal; 19.2 µM in the assay on SK-MEL-2 melanoma; 39.8 µM with SF-268 CNS; 23.7 µM with SK-MEL-5 melanoma; 22.5 µM in the assay on HCT-116 colon. Also, the GI50 in the assay on PC-3 prostate was 17.8 µM; in the assay on SK-OV-3 ovarian it was 20.7 µM; in the assay on SF-295 CNS, 26.6 µM. The TGI with NCI/ADR-RES ovarian is 72.6 µM; with UO-31 renal it was 42.6 µM; in the assay with SK-MEL-2 melanoma, 35.7 µM; in the assay on SF-268 CNS, greater than 100 µM; in the assay with SK-MEL-5 melanoma it was 38.9 µM; in the assay with HCT-116 colon, 63.4 µM. For the same compound, the TGI with PC-3 prostate came to 34.5 µM; in the assay with SK-OV-3 ovarian it was 39.7 µM; in the assay with SF-295 CNS, 63 µM.

In the case of `COc1ccc(NC(=O)CC/C(CC(=O)c2ccco2)=N/NC(N)=S)cc1`, the TGI with UO-31 renal, in the assay with SK-MEL-2 melanoma, with HL-60(TB) leukemia, in the assay on SF-268 CNS, with HCT-116 colon and in the assay on SK-OV-3 ovarian was greater than 100 µM in each case. Besides, the TGI with SF-295 CNS was greater than 100 µM.

On to `CC1(Br)CC2OC3(Br)C=CC(C)(O)C2(CC1=O)C3(C)C` (configuration not stated), for which the TGI in the assay on UO-31 renal, in the assay on SK-MEL-2 melanoma, with SF-268 CNS, in the assay with SK-MEL-5 melanoma, with HCT-116 colon and in the assay with SK-OV-3 ovarian was greater than 100 µM throughout. This compound returned a TGI with SF-295 CNS greater than 100 µM.

Consider `CC[C@@]1(O)C(=O)OCc2c1cc1n(c2=O)Cc2cc3cccc([N+](=O)[O-])c3nc2-1`, for which the GI50 in the assay with UO-31 renal is 1.17 µM; in the assay on SK-MEL-2 melanoma, 6.11 µM; with HL-60(TB) leukemia it was 0.365 µM; in the assay with SF-268 CNS, 0.794 µM; in the assay with SK-MEL-5 melanoma, 1.18 µM; in the assay with HCT-116 colon, 1.58 µM. Further, the GI50 is 0.501 µM with SK-OV-3 ovarian and 0.346 µM with SF-295 CNS. The TGI in the assay with UO-31 renal was 6.91 µM; in the assay with SK-MEL-2 melanoma it was 24.8 µM; with HL-60(TB) leukemia it was greater than 100 µM; in the assay with SF-268 CNS, greater than 100 µM; in the assay with SK-MEL-5 melanoma, 2.74 µM; with HCT-116 colon it was 13.6 µM. Besides, the TGI is 17.1 µM with SK-OV-3 ovarian and 16 µM with SF-295 CNS.

On to `CCOC(=O)NC/C=C/COC1CCCCO1` (configuration not stated), for which the TGI in the assay on UO-31 renal, with SK-MEL-2 melanoma, with HL-60(TB) leukemia, in the assay with SF-268 CNS, with SK-MEL-5 melanoma and in the assay on HCT-116 colon was greater than 100 µM throughout. The same compound yielded a TGI in the assay with SK-OV-3 ovarian greater than 100 µM.

On to `Cc1cc(C)n(-c2ccnc3cc(Cl)ccc23)n1`, for which the TGI in the assay with UO-31 renal, in the assay with SK-MEL-2 melanoma, in the assay with HL-60(TB) leukemia, with SF-268 CNS, in the assay with SK-MEL-5 melanoma and in the assay with HCT-116 colon was greater than 100 µM each time. The TGI with SK-OV-3 ovarian and in the assay on SF-295 CNS was greater than 100 µM in each case.

Regarding `CCCCNC(=O)C1C(=O)N(CCCC)C(=O)/C1=N\N` (configuration not stated), the TGI in the assay on UO-31 renal, with SK-MEL-2 melanoma, in the assay with SF-268 CNS, with SK-MEL-5 melanoma, in the assay on HCT-116 colon and in the assay with SK-OV-3 ovarian was greater than 100 µM throughout. Moreover, in the assay on SF-295 CNS, the TGI was greater than 100 µM.

With `Nc1nc(Cl)cc(NCC(O)CO)n1` (configuration not stated), the TGI in the assay with UO-31 renal, in the assay with SK-MEL-2 melanoma, in the assay on HL-60(TB) leukemia, in the assay on SF-268 CNS, with SK-MEL-5 melanoma and in the assay on HCT-116 colon was greater than 100 µM in each case. Further, the TGI in the assay with SK-OV-3 ovarian and in the assay with SF-295 CNS was greater than 100 µM throughout.

With `N#C[Se]CCN1C(=O)C2C(C1=O)[C@H]1C=C[C@@H]2S1` (some centres not stated), the GI50 with NCI/ADR-RES ovarian is 2.4 µM; in the assay on UO-31 renal, 1.36 µM; in the assay with SK-MEL-2 melanoma, 2.44 µM; in the assay with SF-268 CNS, 1.95 µM; in the assay with SK-MEL-5 melanoma, 2.02 µM; with HCT-116 colon, 1.85 µM. For the same compound, the GI50 in the assay on PC-3 prostate was 2.11 µM; in the assay with SK-OV-3 ovarian, 2.67 µM; in the assay on SF-295 CNS, 1.83 µM. For the same compound, the TGI in the assay on NCI/ADR-RES ovarian worked out at 7.18 µM; in the assay with UO-31 renal, 2.9 µM; in the assay with SK-MEL-2 melanoma, 6.43 µM; in the assay on SF-268 CNS, 3.86 µM; in the assay with SK-MEL-5 melanoma, 4.09 µM; with HCT-116 colon, 4.35 µM. Further, the TGI in the assay on PC-3 prostate was found to be 5.9 µM; with SK-OV-3 ovarian, 5.59 µM; in the assay with SF-295 CNS, 3.35 µM.

On to `COc1cccc(/C=N/NC(=O)c2ccccc2N2CCCC2)c1O`, for which the GI50 in the assay with NCI/ADR-RES ovarian is 2.8 µM; in the assay on UO-31 renal, 2.28 µM; in the assay on SK-MEL-2 melanoma, 54 µM; in the assay on SF-268 CNS it was 6.46 µM; with SK-MEL-5 melanoma, 5.3 µM; in the assay with HCT-116 colon, 3.3 µM. Besides, the GI50 was 6.48 µM in the assay on PC-3 prostate, 4.9 µM in the assay on SK-OV-3 ovarian and 4.88 µM with SF-295 CNS. Also, the TGI in the assay on NCI/ADR-RES ovarian is greater than 100 µM; with UO-31 renal, greater than 100 µM; in the assay on SK-MEL-2 melanoma, greater than 100 µM; with SF-268 CNS, greater than 100 µM; in the assay with SK-MEL-5 melanoma it was 24.4 µM; in the assay with HCT-116 colon it was greater than 100 µM. Besides, the TGI in the assay on PC-3 prostate is greater than 100 µM; in the assay on SK-OV-3 ovarian, 90.6 µM; with SF-295 CNS, greater than 100 µM.

Regarding `O=c1c2ccccc2nc(/C=C(\O)c2ccncc2)n1-c1ccc(Cl)cc1`, the TGI with UO-31 renal, in the assay with SK-MEL-2 melanoma, in the assay with HL-60(TB) leukemia, with SF-268 CNS, in the assay on SK-MEL-5 melanoma and in the assay on HCT-116 colon was greater than 100 µM throughout. For the same compound, the TGI in the assay on SK-OV-3 ovarian and in the assay on SF-295 CNS was greater than 100 µM in each case.

For `O=C(OC1CCC2OOC1O2)c1ccc([N+](=O)[O-])cc1` (configuration not stated), the TGI in the assay on UO-31 renal, in the assay on SK-MEL-2 melanoma, in the assay on HL-60(TB) leukemia, with SF-268 CNS, in the assay on SK-MEL-5 melanoma and in the assay on HCT-116 colon was greater than 100 µM each time. The TGI in the assay with SK-OV-3 ovarian and in the assay with SF-295 CNS was greater than 100 µM throughout.

Take `Cc1ccc(NC(=O)c2cc3ccccc3c(N=Nc3cc(S(=O)(=O)O)ccc3O)c2O)c(C)c1`: the TGI was greater than 100 µM in the assay with NCI/ADR-RES ovarian; 34.1 µM with UO-31 renal; 78.5 µM in the assay on SK-MEL-2 melanoma; greater than 100 µM in the assay with SF-268 CNS; greater than 100 µM in the assay with SK-MEL-5 melanoma; greater than 100 µM in the assay with HCT-116 colon. Besides, the TGI in the assay on PC-3 prostate was greater than 100 µM; in the assay with SK-OV-3 ovarian it was greater than 100 µM; in the assay with SF-295 CNS, 88.9 µM.

For `CCOC(=O)C(N=C(c1ccccc1)c1ccccc1)N(C(=O)OC(C)(C)C)C(=O)OC(C)(C)C` (configuration not stated), the TGI with UO-31 renal, in the assay on SK-MEL-2 melanoma, with SF-268 CNS, in the assay with SK-MEL-5 melanoma, in the assay on HCT-116 colon and in the assay on SK-OV-3 ovarian was greater than 100 µM throughout. Besides, the TGI in the assay on SF-295 CNS was greater than 100 µM.

As for `CCCNCC(=O)O[C@]1(CC)C(=O)OCc2c1cc1n(c2=O)Cc2cc3ccccc3nc2-1`, the TGI was 3.68 µM in the assay on SK-MEL-2 melanoma; 0.553 µM with HL-60(TB) leukemia; 2.46 µM in the assay with SF-268 CNS; 0.304 µM in the assay on SK-MEL-5 melanoma; greater than 100 µM with SK-OV-3 ovarian; 2.1 µM with SF-295 CNS.

For the compound `CCC(O)C1Cc2c(C)cc3c(c2O1)C(=O)c1ccccc1C3=O` (configuration not stated), the TGI was 61.2 µM with UO-31 renal; greater than 100 µM in the assay with SK-MEL-2 melanoma; 51.7 µM in the assay on HL-60(TB) leukemia; greater than 100 µM in the assay on SF-268 CNS; greater than 100 µM with SK-MEL-5 melanoma; greater than 100 µM in the assay with HCT-116 colon. Further, the TGI with SK-OV-3 ovarian stood at 89.4 µM; in the assay on SF-295 CNS, 86.8 µM.
